Results on 45 compounds are retold here after patent US20240156825A1, “USE OF SELECTIVE VEGFR2 AND FGFR1 INHIBITORS” (Fountain Therapeutics Inc., priority 2022, published 2024).

Structures are written as SMILES. Where two headings read alike, the source gives them in different places.

Assay [1] addresses T1, VEGFR2 (Homo sapiens, UniProt P35968). The note with it: relative IC50: reported IC50 toward VEGFR2 divided by next lowest reported IC50 to any gene target.
The next assay relates to any gene target. The note with it: next lowest IC50 value to any gene target, read-out: Min IC50_μM, cited from earlier work.
Assay [2] addresses T1, VEGFR2. As to conditions: reported IC50 to VEGFR2, read-out: VEGFR2 IC50_μM, cited from earlier work.
Where [3] appears, read: Table 3, selective inhibitors of VEGFR2.

T1 sequence (P35968 20-1356, species assumed): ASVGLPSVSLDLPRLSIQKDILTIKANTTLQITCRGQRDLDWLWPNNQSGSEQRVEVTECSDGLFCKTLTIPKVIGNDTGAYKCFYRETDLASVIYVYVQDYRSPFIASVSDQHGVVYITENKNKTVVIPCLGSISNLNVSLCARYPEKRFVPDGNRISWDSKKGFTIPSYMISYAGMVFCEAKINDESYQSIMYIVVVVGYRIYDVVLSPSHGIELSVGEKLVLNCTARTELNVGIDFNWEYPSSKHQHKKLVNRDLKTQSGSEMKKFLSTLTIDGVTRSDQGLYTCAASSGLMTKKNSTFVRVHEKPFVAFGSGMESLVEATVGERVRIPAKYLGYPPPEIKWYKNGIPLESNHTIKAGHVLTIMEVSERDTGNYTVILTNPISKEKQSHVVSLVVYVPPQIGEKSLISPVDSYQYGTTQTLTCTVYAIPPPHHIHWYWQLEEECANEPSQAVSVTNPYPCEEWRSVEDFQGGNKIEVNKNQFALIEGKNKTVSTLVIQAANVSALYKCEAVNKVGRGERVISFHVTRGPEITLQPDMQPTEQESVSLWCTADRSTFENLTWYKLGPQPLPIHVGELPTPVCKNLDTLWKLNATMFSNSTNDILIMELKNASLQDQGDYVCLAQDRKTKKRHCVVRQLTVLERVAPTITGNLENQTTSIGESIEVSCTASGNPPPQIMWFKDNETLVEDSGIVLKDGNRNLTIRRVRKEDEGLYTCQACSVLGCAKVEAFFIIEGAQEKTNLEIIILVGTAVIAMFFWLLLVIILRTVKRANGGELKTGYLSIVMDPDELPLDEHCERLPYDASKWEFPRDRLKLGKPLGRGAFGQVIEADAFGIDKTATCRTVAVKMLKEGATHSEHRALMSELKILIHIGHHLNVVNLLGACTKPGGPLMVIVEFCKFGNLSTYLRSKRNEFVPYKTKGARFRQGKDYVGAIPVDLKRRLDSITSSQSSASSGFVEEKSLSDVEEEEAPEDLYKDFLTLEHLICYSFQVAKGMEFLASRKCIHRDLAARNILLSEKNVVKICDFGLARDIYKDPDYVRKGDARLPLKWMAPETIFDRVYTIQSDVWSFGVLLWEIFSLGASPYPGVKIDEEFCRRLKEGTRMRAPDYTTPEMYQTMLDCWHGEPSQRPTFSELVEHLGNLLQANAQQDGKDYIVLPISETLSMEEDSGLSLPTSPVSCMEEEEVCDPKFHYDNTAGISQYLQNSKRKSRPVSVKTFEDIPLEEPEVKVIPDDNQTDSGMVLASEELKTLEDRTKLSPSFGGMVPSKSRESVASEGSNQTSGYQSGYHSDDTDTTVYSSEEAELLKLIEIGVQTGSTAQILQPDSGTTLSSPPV

For the compound `COC(=O)c1ccc2c(c1)NC(=O)C2=C(Nc1ccc(CN(C)C)cc1)c1ccccc1` [compound 135522918, Methyl 3-[[4-[(dimethylamino)methyl]anilino]-phenylmethylidene]-2-oxo-1H-indole-6-carboxylate], at VEGFR2 [1], the “VEGFR2, rIC50” value was 2.3.
The same measure, in the same setting: next, `Nc1c(C(=O)c2cc3ccccc3[nH]2)cnn1-c1ccc2nc[nH]c2c1` [compound 68005732, [5-Amino-1-(1H-benzimidazol-6-yl)-1H-pyrazol-4-yl]-1H-indol-2-ylMethanone]: 10.3; `CCN1CCC(Nc2ccc3[nH]c(O)c(C(=C4N=c5ccccc5=N4)c4cc(F)cc(F)c4)c3c2)CC1` [compound 135546228, 3-[Benzimidazol-2-ylidene-(3,5-difluorophenyl)methyl]-5-[(1-ethylpiperidin-4-yl)amino]-1H-indol-2-ol]: 0.7.
Consider `COC(=O)c1ccc2c(c1)NC(=O)/C2=C(\Nc1ccc(N(CC(=O)N(C)C)C(C)=O)cc1)c1ccccc1` [compound 135456052, Methyl (3Z)-3-[[4-[acetyl-[2-(dimethylamino)-2-oxoethyl]amino]anilino]-phenylmethylidene]-2-oxo-1H-indole-6-carboxylate], for which the “VEGFR2, rIC50” value at VEGFR2 [1] is listed as 1.3.
As for `CONC(=O)c1cc(Nc2ncnn3cc(NC(=O)OCC4CCCO4)c(C(C)C)c23)c(F)cc1F` (stereo not shown) [compound 11477626, [4-(2,4-Difluoro-5-methoxycarbamoyl-phenylamino)-5-isopropyl-pyrrolo[2,1-f][1,2,4]triazin-6-yl]-carbamic acid tetrahydro-furan-2-ylmethyl ester], the “VEGFR2, rIC50” value on VEGFR2 [1] was found to be 1.0.
`COC(=O)c1ccc2c(C(=Nc3ccc(C(=O)N(C)CCN(C)C)cc3)c3ccccc3)c(O)[nH]c2c1` [compound 135452890, Methyl 3-[N-[4-[2-(dimethylamino)ethyl-methylcarbamoyl]phenyl]-C-phenylcarbonimidoyl]-2-hydroxy-1H-indole-6-carboxylate]: the “VEGFR2, rIC50” value at VEGFR2 [1] worked out at 2.2.
Same read-out and setting: the same measure for `CCN1CCC(Nc2ccc3[nH]c(O)c(C(=C4N=c5ccccc5=N4)c4ccccc4)c3c2)CC1` [compound 135405015, 3-[Benzimidazol-2-ylidene(phenyl)methyl]-5-[(1-ethylpiperidin-4-yl)amino]-1H-indol-2-ol]: 2.0; for `COC(=O)c1ccc2c(c1)NC(=O)/C2=C(\Nc1ccc(N(CCCN(C)C)C(C)=O)cc1)c1ccccc1` [compound 135405065]: 3.0.
Consider `COc1cc2c(Nc3ccc(Cl)c(Cl)c3)ncnc2cc1OCC1CN2CSC[C@H]2CO1` (stereo partly shown) [compound 57802698], for which the IC50 in the assay with any gene target and on VEGFR2 [2] was 50 nM throughout.
On to `COc1cc2c(Nc3ccc(Br)c(Cl)c3F)ncnc2cc1O[C@@H]1C[C@H]2OC[C@H](OC)[C@H]2O1` [compound 134155171], for which the IC50 in the assay on any gene target (Table 3) and on VEGFR2 [2] (setting [3]) was 50 nM throughout.
As for `Cc1[nH]nc2cc(N(C)c3ccnc(Nc4cccc(S(N)(=O)=O)c4)n3)ccc12` [compound 21956341], the IC50 in the assay on any gene target is 700 nM; at VEGFR2 [2], 0.6 nM.
Consider `COc1cc2c(Nc3ccc(Cl)cc3F)ncnc2cc1OC/C=C/CN1CCCC1` [compound 22478297], for which the IC50 in the assay on any gene target (Table 3) and on VEGFR2 [2] (setting [3]) was 40 nM each time.
Take `COc1cc2c(Nc3ccc(Cl)c(Cl)c3)ncnc2cc1OCCC1CN(C)C(C)(C)CO1` (stereo not shown) [compound 57802889]: the IC50 in the assay with any gene target (Table 3) and on VEGFR2 [2] (setting [3]) was 50 nM throughout.
On to `COc1cc2c(Nc3c(F)cc(Br)cc3F)ncnc2cc1OCC1CCNCC1` [compound 5329051], for which the IC50 with any gene target is 70 nM; at VEGFR2 [2], 15 nM.
On to `CCOc1cc2c(Nc3ccc(Cl)c(Cl)c3)ncnc2cc1OCC1CN(C)CCO1` (stereo not shown) [compound 57802695], for which the IC50 in the assay with any gene target and at VEGFR2 [2] was 50 nM each time.
On to `COc1cc2c(Nc3ccc(Br)cc3F)ncnc2cc1OCCC1CCN(C)CC1` [compound 5329053], for which the IC50 in the assay on any gene target is 60 nM; on VEGFR2 [2], 6 nM.
With `Cn1ccc2ncnc(Oc3ccc(NC(=O)Nc4cccc(C(F)(F)F)c4)c(F)c3)c21` [compound 15949613], the IC50 is 15 nM in the assay on any gene target and 0.033 nM on VEGFR2 [2].
Regarding `CC(C)Oc1cc2c(Nc3ccc(Cl)c(Cl)c3)ncnc2cc1OCC1CNCCO1` (stereo not shown) [compound 57802576], the IC50 in the assay on any gene target (Table 3) and on VEGFR2 [2] (setting [3]) was 50 nM in each case.
For `COc1cc2c(Nc3ccc(Br)c(Cl)c3F)ncnc2cc1OC[C@@H]1CN2CCOC[C@H]2CO1` [compound 9937516], the IC50 with any gene target (Table 3) and on VEGFR2 [2] (setting [3]) was 50 nM throughout.
As for `COc1cc2c(Nc3ccc(C)cc3F)ncnc2cc1OCC1CCNCC1` [compound 5329049], the IC50 in the assay with any gene target was 250 nM; on VEGFR2 [2], 30 nM.
In the case of `CN1CCC(Nc2ccc3c(c2)/C(=C/c2cc4c([nH]2)CCN(C(=O)N2CCOCC2)C4)C(=O)N3)CC1` [compound 71714235], the IC50 in the assay on any gene target (Table 3) and at VEGFR2 [2] (setting [3]) was 3 nM each time.
In the case of `COc1cc2c(Nc3ccc(Cl)c(Cl)c3)ncnc2cc1OC[C@@H]1CN2CCC[C@@H]2CO1` [compound 57802582], the IC50 in the assay on any gene target (Table 3) and at VEGFR2 [2] (setting [3]) was 50 nM in each case.
`O=C(CSC(=S)N1CCCCC1)Nc1cccc(NC(=O)c2ccccn2)c1` [compound 155562216]: the IC50 in the assay with any gene target is 84 nM; on VEGFR2 [2], 27 nM.
`C[C@@H](Nc1ncnc2[nH]c(-c3ccc(OCCCCC(=O)NO)cc3)cc12)c1ccccc1` [compound 24900507]: the IC50 in the assay with any gene target and on VEGFR2 [2] was 100 nM throughout.
As for `COc1cc(C2=C(c3cn(COC(C)(C)C)c4ccccc34)CNC2=O)cc(OC)c1OC` [compound 24894992], the IC50 in the assay with any gene target (Table 3) and on VEGFR2 [2] (setting [3]) was 4400 nM each time.
As for `COc1cc2c(Nc3cc(Cl)c(Cl)cc3F)ncnc2cc1OC[C@H]1CN2CCOC[C@H]2CO1` [compound 10346203], the IC50 in the assay on any gene target (Table 3) and on VEGFR2 [2] (setting [3]) was 50 nM throughout.
As to `CCOc1cc2c(Nc3ccc(Cl)c(Cl)c3)ncnc2cc1OCC1CNCCO1` (stereo not shown) [compound 57802713], the IC50 in the assay with any gene target and on VEGFR2 [2] was 50 nM in each case.
Regarding `Cc1nn(C)c2cc(N(C)c3ccnc(Nc4cccc(S(N)(=O)=O)c4)n3)ccc12` [compound 24949545], the IC50 is 1000 nM in the assay on any gene target and 36 nM at VEGFR2 [2].
As for `Clc1cccc(Nc2cncc(-c3cncc(NCCCn4cncn4)c3)n2)c1` [compound 5330392], the IC50 is 153 nM with any gene target and 67 nM on VEGFR2 [2].
On to `Cc1nc2ccc(N(C)c3ccnc(Nc4cccc(S(N)(=O)=O)c4)n3)cc2n1C` [compound 24949704], for which the IC50 is 1700 nM with any gene target and 63 nM at VEGFR2 [2].
Regarding `Cc1ccc(NC(=O)c2ccc(C(C)(C)C)s2)cc1Nc1nc2ccccc2n1-c1cc(N)ncn1` [compound 15949617], the IC50 in the assay on any gene target and on VEGFR2 [2] was 4 nM each time.
In the case of `COc1cc2c(Nc3ccc(Br)c(Cl)c3F)ncnc2cc1OC[C@H]1CN2CCOC[C@H]2CO1` [compound 10370400], the IC50 in the assay on any gene target (Table 3) and on VEGFR2 [2] (setting [3]) was 50 nM throughout.
In the case of `COc1cc2c(Nc3cc(Cl)c(Br)cc3F)ncnc2cc1OCC1CN(C)C(C)(C)CO1` (stereo not shown) [compound 57802776], the IC50 in the assay with any gene target and on VEGFR2 [2] was 50 nM throughout.
In the case of `CCN1CCC(c2nc(COc3cc4ncnc(Nc5ccc(Cl)c(Cl)c5)c4cc3OC)no2)CC1` [compound 58013796], the IC50 in the assay with any gene target (Table 3) and at VEGFR2 [2] (setting [3]) was 50 nM in each case.
As to `COc1cc2c(Nc3ccc(Cl)c(Cl)c3)ncnc2cc1OCC1CN(CC(N)=O)CCO1` (stereo not shown) [compound 57802603], the IC50 in the assay on any gene target (Table 3) and on VEGFR2 [2] (setting [3]) was 50 nM each time.
With `COc1cc2c(Nc3ccc(Cl)c(Cl)c3)ncnc2cc1OCc1csc(C2CCCCN2)n1` (stereo not shown) [compound 57802866], the IC50 in the assay with any gene target (Table 3) and at VEGFR2 [2] (setting [3]) was 50 nM in each case.
Regarding `O=C1N/C=C/c2ccc(c(Br)c2)Oc2cc(cc(Br)c2O)CCNC(=O)/C(=N/O)Cc2ccc(c(Br)c2)Oc2cc(cc(Br)c2O)C/C1=N\O` [compound 10396070], the IC50 in the assay on any gene target is 1500 nM; on VEGFR2 [2], 1300 nM.
In the case of `C[C@@H](Nc1ncnc2[nH]c(-c3ccc(C(=O)NO)cc3)cc12)c1ccccc1` [compound 24900715], the IC50 with any gene target (Table 3) and at VEGFR2 [2] (setting [3]) was 100 nM throughout.
`COc1cc2c(Nc3ccc(Cl)c(Cl)c3)ncnc2cc1OCc1nc(N2CCNCC2)no1` [compound 57802679]: the IC50 in the assay on any gene target and at VEGFR2 [2] was 50 nM throughout.
In the case of `COc1cc2c(Nc3ccc(Br)cc3F)ncnc2cc1OC/C=C/CN1CCCC1` [compound 22478260], the figures for the IC50 in the assay with any gene target and on VEGFR2 [2] were 30 nM and 8 nM, respectively.
For `COc1cc2c(Nc3ccc(Br)c(Cl)c3)ncnc2cc1O[C@@H]1CCOC1` [compound 58013780], the IC50 with any gene target (Table 3) and at VEGFR2 [2] (setting [3]) was 50 nM in each case.
On to `COc1cc2c(Nc3ccc(Cl)c(Cl)c3)ncnc2cc1OC[C@@H]1CN2CCC[C@H]2CO1` [compound 57802678], for which the IC50 in the assay on any gene target and at VEGFR2 [2] was 50 nM each time.
Consider `COc1cc2c(Nc3ccc(Cl)c(Cl)c3F)ncnc2cc1OC[C@@H]1CN2CCOC[C@H]2CO1` [compound 66838539], for which the IC50 in the assay on any gene target (Table 3) and at VEGFR2 [2] (setting [3]) was 50 nM each time.
`COc1cc2c(Nc3ccc(Cl)c(Cl)c3)ncnc2cc1OCc1csc(C2CCCN(C)C2)n1` (stereo not shown) [compound 57802607]: the IC50 in the assay on any gene target (Table 3) and on VEGFR2 [2] (setting [3]) was 50 nM each time.
On to `O=C(CCCCCCCNCc1cc(Oc2ccc(NC(=O)Nc3ccc(Cl)c(C(F)(F)F)c3)cc2)ccn1)NO` [compound 25072218], for which the IC50 in the assay on any gene target and at VEGFR2 [2] was 100 nM in each case.
